Test results taken from paper doi:10.1101/2024.07.10.602890, “H105A peptide eye drops promote photoreceptor survival in murine and human models of retinal degeneration” (bioRxiv, 2024).
Ends that are not written are not given here.

Legend:
[1] = target: T1, recombinant human PEDF-R[1–288] (Homo sapiens, UniProt Q96AD5); assay: Phospholipase A2 (PLA2) activity assay of PEDF-R with peptides; type: biochemical; conditions: purified recombinant PEDF-R[1–288] 60 nM; peptides preincubated 30 min at room temperature; EnzChek PLA2 kit; six replicate reactions
T1 construct: SUMOstar (N); His tag (implied by HisTrap purification; part of the pE-SUMOstar vector) (N); TwinStrep (C); made in house; host or cells: Escherichia coli Rosetta(DE3), co-transformed with pGro7 (groES-groEL)
T1 sequence (Q96AD5 1-288): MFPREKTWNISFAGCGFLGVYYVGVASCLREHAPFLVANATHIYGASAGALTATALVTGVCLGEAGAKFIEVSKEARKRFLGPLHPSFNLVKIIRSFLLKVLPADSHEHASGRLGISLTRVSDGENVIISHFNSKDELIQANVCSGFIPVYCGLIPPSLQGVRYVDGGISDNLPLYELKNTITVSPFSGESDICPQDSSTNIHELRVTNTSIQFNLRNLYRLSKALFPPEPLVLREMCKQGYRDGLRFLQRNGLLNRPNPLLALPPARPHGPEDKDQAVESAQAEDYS
Source text: Fig. 1: Penetration and Bioavailability of PEDF Peptides 17-mer, H105A, and R99A Delivered via Eye Drops in Mouse Retinas (A) Peptide mapping and sequence. Tertiary structure of human PEDF highlighting the small peptide region with neurotrophic activity (17-mer) in blue (top). Primary structure of human PEDF showing the location of the 17-mer region (middle). Sequences of the 17-mer peptide and its variants, H105A and R99A (bottom). (B) In vivo detection of peptides. Fundus micrographs showing fluorescence from Alexa Fluor 488-labeled 17-mer, H105A, and R99A peptides in the eyes of C57Bl/6J mice at P21 days after eye drop administration of 5 μl of peptide at 1 mg/ml (left). […] Quantification of fluorescence intensity over time post-administration (right). […] (C) Quantification of peptide in retinas. […] The amount of peptide was quantified from the fluorescence in retinal extracts using standard curves (Fig. S6A). […] (D) Retinal cross-sections showing fluorescence distribution in the photoreceptor layer 1 hour after applying eye drops as in Panel B. Representative images for labeled 17-mer, H105A, and R99A peptides are shown, with magnified areas of 17-mer and H105A indicated by dotted rectangles. […] (F) Effects of 17-mer, H105A, and R99A peptides on the PLA2 activity of PEDF-R. Peptides were preincubated with recombinant human PEDF-R[1–288] for 30 min, and PLA2 activity was measured. […]

[2] = Stability of peptide H105A against temperature (Table S2); type: physicochemical
Protocol: Lyophilized peptides were dissolved in sterile HBSS at 1 mg/ml and stored at −20 °C. Before the peptides were used, the peptide solution was brought to room temperature and subjected to centrifugation (Eppendorf, Centrifuge 5430R) at 20,800 g for 10 min at 4°C to clear and separate particulate material. In case a precipitate was found, the pH of the solution was adjusted to neutral pH with either NaOH or HCl and all peptides were soluble. The concentration of peptide solutions was determined using spectrophotometry (NanoDrop, Thermo Fisher Scientific).
Table S2. Stability of 17-mer[H105A] peptide.
Concentration (mg/mL) Store Concentration (mg/mL)
*FT, Freeze and thaw cycles daily

For QRTESIIHRALYYDLIS [17-mer], the “stimulation of PLA2 activity of PEDF-R” value [1] was “capable of stimulating its PLA2 activity”.
With QRTESIIARALYYDLIS [H105A] the “Concentration Day1” value ([2]; sample 1, before storage at RT, peptide solution, spectrophotometry (NanoDrop)) was 1040 µg/mL, the “Concentration Day1” value ([2]; sample 2, before storage at 4°C) was 1040 µg/mL and the “Concentration Day1” value ([2]; sample 3, before storage at -20°C) was 1040 µg/mL. For the same sequence, the “Concentration Day1” value ([2]; sample 4, before storage at -20°C [FT]) was 1040 µg/mL and the “stimulation of PLA2 activity of PEDF-R” value [1] was “capable of stimulating its PLA2 activity”.
